Test results published in ChEMBL document CHEMBL4321791, “TASK Channels Pharmacology: New Challenges in Drug Design” (J Med Chem, 2019).
Structures can show the parent of a compound that is named as a salt. Values belong to the compound of their own block, whether it stands above or below them.

Key:
[1] = biological target: Potassium channel subfamily K member 9 (Rattus norvegicus) (UniProt Q9ES08); experiment: Inhibition of rat TASK3 expressed in African green monkey COS7 cells at 100 uM by outside-out patches based electrophysiology assay relative to control; type: cell-based
Chain of Potassium channel subfamily K member 9 (Rattus norvegicus) (Q9ES08 whole entry): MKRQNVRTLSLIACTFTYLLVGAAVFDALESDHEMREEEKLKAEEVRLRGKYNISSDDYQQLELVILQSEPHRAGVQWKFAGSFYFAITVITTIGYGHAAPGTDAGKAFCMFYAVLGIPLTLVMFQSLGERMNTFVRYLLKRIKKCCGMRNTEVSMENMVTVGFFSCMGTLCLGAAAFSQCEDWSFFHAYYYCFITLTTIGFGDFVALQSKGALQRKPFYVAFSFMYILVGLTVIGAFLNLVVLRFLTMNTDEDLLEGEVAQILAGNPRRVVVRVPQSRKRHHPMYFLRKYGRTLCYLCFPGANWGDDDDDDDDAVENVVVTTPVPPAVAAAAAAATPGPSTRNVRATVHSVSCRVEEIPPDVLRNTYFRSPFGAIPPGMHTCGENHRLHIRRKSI

[2] = biological target: T1, Potassium channel subfamily K member 3 (Homo sapiens, UniProt O14649); experiment: Inhibition of human TASK1 expressed in Xenopus oocytes by whole cell voltage clamp assay; type: cell-based
Target sequence in this assay (O14649 whole entry): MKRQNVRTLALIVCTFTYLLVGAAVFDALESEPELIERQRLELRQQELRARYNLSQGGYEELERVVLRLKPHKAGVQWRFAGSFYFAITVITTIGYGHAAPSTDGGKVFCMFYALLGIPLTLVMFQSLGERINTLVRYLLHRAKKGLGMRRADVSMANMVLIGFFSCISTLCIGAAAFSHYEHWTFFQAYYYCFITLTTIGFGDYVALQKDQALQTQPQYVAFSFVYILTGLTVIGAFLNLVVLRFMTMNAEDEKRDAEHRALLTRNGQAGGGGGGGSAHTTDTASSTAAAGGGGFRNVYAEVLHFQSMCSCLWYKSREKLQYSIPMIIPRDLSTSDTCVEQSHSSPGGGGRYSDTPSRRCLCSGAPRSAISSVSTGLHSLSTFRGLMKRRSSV

[3] = biological target: T2, Potassium channel subfamily K member 9 (Homo sapiens, UniProt Q9NPC2); experiment: Inhibition of human TASK3 expressed in CHOK1 cells by Ti+ flux assay; type: cell-based
T2 sequence (Q9NPC2 whole entry): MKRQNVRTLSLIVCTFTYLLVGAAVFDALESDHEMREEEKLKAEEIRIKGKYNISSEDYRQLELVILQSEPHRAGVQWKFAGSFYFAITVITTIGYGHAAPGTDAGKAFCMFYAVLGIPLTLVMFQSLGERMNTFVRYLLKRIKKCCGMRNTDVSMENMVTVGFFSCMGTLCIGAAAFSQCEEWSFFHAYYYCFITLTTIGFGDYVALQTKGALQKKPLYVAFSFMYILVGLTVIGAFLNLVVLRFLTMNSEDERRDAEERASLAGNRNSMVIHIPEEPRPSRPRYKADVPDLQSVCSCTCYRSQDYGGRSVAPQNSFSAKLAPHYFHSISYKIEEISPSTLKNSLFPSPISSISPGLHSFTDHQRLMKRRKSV

[4] = biological target: T2, Potassium channel subfamily K member 9; experiment: Inhibition of human TASK3 expressed in Xenopus oocytes by whole cell voltage clamp assay; type: cell-based
[5] = biological target: T2, Potassium channel subfamily K member 9; experiment: Inhibition of human TASK3 expressed in HEK293 cells by Ti+ flux assay; type: cell-based
[6] = biological target: T1, Potassium channel subfamily K member 3; experiment: Inhibition of human TASK1 by whole cell voltage clamp assay
Target sequence in this assay (O14649 whole entry): as the sequence (O14649 whole entry) above

[7] = biological target: T2, Potassium channel subfamily K member 9; experiment: Inhibition of human TASK3 expressed in HEK293 by whole cell voltage clamp assay; type: cell-based
[8] = biological target: T2, Potassium channel subfamily K member 9; conditions: 1 uM
Description: Inhibition of human TASK3 expressed in Xenopus oocytes at 1 uM by whole cell patch clamp assay relative to control

[9] = biological target: T1, Potassium channel subfamily K member 3; experiment: Activation of human TASK1 expressed in African green monkey COS cells at 1 mM by whole cell patch clamp assay relative to control; type: cell-based
Target sequence in this assay (O14649 whole entry, looked up): as the sequence (O14649 whole entry) above

[10] = biological target: T1, Potassium channel subfamily K member 3; experiment: Activation of human TASK1 expressed in African green monkey COS cells at 0.1 to 1 mM by whole cell patch clamp assay relative to control; type: cell-based
Target sequence in this assay (O14649 whole entry, looked up): as the sequence (O14649 whole entry) above

[11] = biological target: T2, Potassium channel subfamily K member 9; experiment: Activation of human TASK3 expressed in Xenopus oocytes at 1 mM by whole cell patch clamp assay relative to control; type: cell-based
[12] = biological target: T3, Potassium channel subfamily K member 5 (Homo sapiens, UniProt O95279); experiment: Inhibition of human TASK2 expressed in CHO cells by Inside-out macro-patches based electrophysiology assay; type: cell-based
T3 sequence (O95279 whole entry): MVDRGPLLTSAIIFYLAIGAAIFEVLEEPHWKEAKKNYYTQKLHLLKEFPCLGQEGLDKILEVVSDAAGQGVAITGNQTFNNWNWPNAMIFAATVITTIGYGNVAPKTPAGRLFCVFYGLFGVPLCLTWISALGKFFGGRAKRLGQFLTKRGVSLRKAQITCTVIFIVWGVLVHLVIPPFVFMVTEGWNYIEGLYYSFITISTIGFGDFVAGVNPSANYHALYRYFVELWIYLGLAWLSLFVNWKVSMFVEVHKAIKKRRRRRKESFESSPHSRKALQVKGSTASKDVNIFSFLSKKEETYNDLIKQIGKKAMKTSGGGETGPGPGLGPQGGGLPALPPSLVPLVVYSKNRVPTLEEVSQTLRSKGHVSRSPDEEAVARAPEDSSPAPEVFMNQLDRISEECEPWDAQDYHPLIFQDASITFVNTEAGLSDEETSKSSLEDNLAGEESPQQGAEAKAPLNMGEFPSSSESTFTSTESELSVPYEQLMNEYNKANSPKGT

[13] = biological target: T4, Potassium channel subfamily K member 17 (Homo sapiens, UniProt Q96T54); experiment: Inhibition of human TASK4 expressed in CHO cells by Inside-out macro-patches based electrophysiology assay; type: cell-based
T4 sequence (Q96T54 whole entry): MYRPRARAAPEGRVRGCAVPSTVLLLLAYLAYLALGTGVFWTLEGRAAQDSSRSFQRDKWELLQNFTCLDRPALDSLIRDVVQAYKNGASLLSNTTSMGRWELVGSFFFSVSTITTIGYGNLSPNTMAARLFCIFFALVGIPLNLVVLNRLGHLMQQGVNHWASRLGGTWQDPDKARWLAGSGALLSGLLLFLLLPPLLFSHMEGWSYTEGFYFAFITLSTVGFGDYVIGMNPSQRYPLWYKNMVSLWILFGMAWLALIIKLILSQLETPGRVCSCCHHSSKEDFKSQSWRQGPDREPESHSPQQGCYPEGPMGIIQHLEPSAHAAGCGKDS

[14] = species on record: Homo sapiens; experiment: Selectivity index, ratio of IC50 for Kv1.5 channel (unknown origin) to IC50 for inhibition of human TASK1 expressed in Xenopus oocytes by whole cell voltage clamp assay; type: cell-based
[15] = biological target: T5, Potassium channel subfamily K member 9 (Rattus norvegicus, UniProt Q9ES08); experiment: Inhibition of rat TASK3 expressed in (FRT) epithelial cells by chamber based electrophysiology assay; type: cell-based
T5 sequence (Q9ES08 whole entry): as the sequence (Q9ES08 whole entry) above

[16] = biological target: T2, Potassium channel subfamily K member 9; experiment: Inhibition of human TASK3 expressed in CHO cells by Inside-out macro-patches based electrophysiology assay; type: cell-based
[17] = biological target: Potassium channel subfamily K member 9 (Rattus norvegicus) (UniProt Q9ES08); experiment: Inhibition of rat TASK3 expressed in African green monkey COS7 cells at 1 mM by outside-out patches based electrophysiology assay relative to control; type: cell-based
[18] = biological target: T1, Potassium channel subfamily K member 3; experiment: Inhibition of human TASK1 expressed in African green monkey COS7 cells by whole cell patch clamp assay; type: cell-based
Target sequence in this assay (O14649 whole entry): as the sequence (O14649 whole entry) above

[19] = biological target: T1, Potassium channel subfamily K member 3; experiment: Activation of human TASK1 expressed in African green monkey COS cells at 2 mM by whole cell patch clamp assay relative to control; type: cell-based
Target sequence in this assay (O14649 whole entry, looked up): as the sequence (O14649 whole entry) above

[20] = biological target: T1, Potassium channel subfamily K member 3; experiment: Inhibition of human TASK1 expressed in African green monkey COS cells by whole cell patch clamp assay; type: cell-based
Target sequence in this assay (O14649 whole entry): as above

[21] = biological target: T6, Potassium channel subfamily K member 3 (Rattus norvegicus, UniProt O54912); experiment: Inhibition of rat TASK1 expressed in African green monkey COS7 cells by outside-out patches based electrophysiology assay; type: cell-based
T6 sequence (O54912 whole entry): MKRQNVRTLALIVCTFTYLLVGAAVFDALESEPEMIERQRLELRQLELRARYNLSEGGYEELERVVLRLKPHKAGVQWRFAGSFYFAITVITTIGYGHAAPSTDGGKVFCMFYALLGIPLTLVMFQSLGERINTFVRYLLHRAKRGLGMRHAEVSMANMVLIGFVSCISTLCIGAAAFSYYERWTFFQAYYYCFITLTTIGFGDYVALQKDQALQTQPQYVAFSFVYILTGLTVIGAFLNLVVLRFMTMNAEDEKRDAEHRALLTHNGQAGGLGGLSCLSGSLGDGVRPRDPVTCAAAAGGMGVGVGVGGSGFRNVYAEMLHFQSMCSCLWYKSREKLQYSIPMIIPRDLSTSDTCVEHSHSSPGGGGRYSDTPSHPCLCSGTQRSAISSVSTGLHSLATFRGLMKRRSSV

[22] = biological target: T5, Potassium channel subfamily K member 9; experiment: Inhibition of rat TASK3 expressed in African green monkey COS7 cells by outside-out patches based electrophysiology assay; type: cell-based
[23] = biological target: T2, Potassium channel subfamily K member 9; experiment: Activation of human TASK3 expressed in human tsA201 cells at 1 uM by whole cell patch clamp assay relative to control; type: cell-based
[24] = biological target: T6, Potassium channel subfamily K member 3; experiment: Inhibition of rat TASK1 expressed in Xenopus oocytes by whole cell voltage clamp assay; type: cell-based
[25] = biological target: T5, Potassium channel subfamily K member 9; experiment: Inhibition of rat TASK3 expressed in Xenopus oocytes by whole cell voltage clamp assay; type: cell-based
[26] = biological target: T1, Potassium channel subfamily K member 3; experiment: Inhibition of human TASK1 expressed in African green monkey COS cells at 0.6 mM by whole cell patch clamp assay relative to control; type: cell-based
Target sequence in this assay (O14649 whole entry, looked up): as the sequence (O14649 whole entry) above

SMILES: C=C[C@H]1CN2CC[C@H]1C[C@@H]2[C@@H](O)c1ccnc2ccc(OC)cc12
inhibition [1]: 37%

SMILES: CC(C1CC2CCC1C2)n1c(S)nnc1-c1ccco1 (stereo not given)
IC50 [6]: 3.2 µM
IC50 [7]: 0.413 µM

SMILES: CC[N+](CC)(CC)CC
inhibition [8]: 6.1%

SMILES: FC(F)(F)C(Cl)Br (stereo not given)
Activity [9]: 60%
Activity [10]: > 60%
Activity [11]: 65.6%

SMILES: CC[C@@H]1/C=C/C=C/C[C@H](C)[C@@H](O)[C@](C)(O)C(=O)[C@H](C)[C@@H](O)[C@H](C)C(=O)[C@H](C)[C@@H](O)[C@H](C)/C=C/C(=O)O[C@H]2[C@@H](C)[C@@H](CC1)O[C@@]1(CC[C@@H](C)[C@@H](C[C@H](C)O)O1)[C@@H]2C
IC50 [5]: 47.7 µM

SMILES: CCN(CC)CC(=O)Nc1c(C)cccc1C [LIDOCAINE]
IC50 [2]: 222 µM
inhibition [17]: 62%

SMILES: CCCCC/C=C\C/C=C\C/C=C\C/C=C\CCCC(=O)NCCO [ANANDAMIDE]
IC50 [18]: 3 µM

SMILES: CN1CCN(C2Cc3ccccc3Sc3ccc(Cl)cc32)CC1 (racemic)
IC50 [5]: 73.8 µM

SMILES: FC(F)OC(Cl)C(F)(F)F (stereo not given)
Activity [19]: 25%

SMILES: Ic1ccccc1CN[C@@H]1C2CCN(CC2)[C@@H]1C(c1ccccc1)c1ccccc1
IC50 [5]: 45.5 µM

SMILES: Cc1cccc(C)c1NC(=O)C1CCCCN1C (stereo not given) [MEPIVACAINE]
IC50 [2]: 709 µM

SMILES: [Cl-].[Cs+]
Activity [11]: 7.7%

SMILES: CCCN(CC)C(CC)C(=O)Nc1c(C)cccc1C (stereo not given) [ETIDOCAINE]
IC50 [2]: 39 µM

SMILES: CCCCC/C=C\C/C=C\C/C=C\C/C=C\CCCC(=O)N[C@H](C)CO [METHANANDAMIDE]
IC50 [20]: 0.1 µM

SMILES: CCCCN1CCCCC1C(=O)Nc1c(C)cccc1C (stereo not given) [BUPIVACAINE]
IC50 [21]: 41 to 68 µM
IC50 [2]: 41 µM
inhibition [1]: 56%
IC50 [22]: 100 µM

SMILES: CCCCNc1ccc(C(=O)OCCN(C)C)cc1 [TETRACAINE]
IC50 [2]: 668 µM

SMILES: CCOC(=O)c1c(-c2cccc(N)c2)c(C)n2c1-c1cc(OC)c(OC)cc1CC2
IC50 [4]: 268 µM

SMILES: CCCN1CCCC[C@H]1C(=O)Nc1c(C)cccc1C [ROPIVACAINE]
IC50 [2]: 53 µM

SMILES: CCCN1CCCC[C@@H]1C(=O)Nc1c(C)cccc1C
IC50 [2]: 51 µM

SMILES: CN1CCN(C2Cc3ccccc3Sc3ccc(Cl)cc32)CC1 (stereo not given) [CLOROTEPINE]
IC50 ([5]; hek293): 73.8 µM

SMILES: CC[C@H](C)C(=O)O[C@H]1CCC=C2C=C[C@H](C)[C@H](CC[C@@H]3C[C@@H](O)CC(=O)O3)[C@H]21 [MEVASTATIN]
IC50 [5]: 159 µM

SMILES: CCOCC
inhibition [26]: 40%

SMILES: CCOC(=O)c1cc(C)n2c1-c1cc(OC)c(OC)cc1CC2
IC50 [2]: 83.5 µM

SMILES: CCOC(=O)c1c(-c2cccs2)c(C)n2c1-c1cc(OC)c(OC)cc1CC2
IC50 [2]: 96.7 µM

Second part, led by results:

IC50 [2]: 1.05 µM
SMILES: CCc1ccc(S(=O)(=O)NC2c3cc(NC(=O)c4cccc(OC)c4)ccc3CC2O)cc1 (stereo not given)

fold change (FC) [3]: 6
SMILES: O=C(NCCNc1ccc([N+](=O)[O-])cc1C(F)(F)F)c1ccccc1

IC50 [4]: 189 µM
SMILES: COc1cc2c(cc1OC)-c1c(C#N)c(-c3ccccc3)c(C)n1CC2

IC50 ([5]; hek293): 63.4 µM
SMILES: CCOC(=O)N1CCC(=C2c3ccc(Cl)cc3CCc3cccnc32)CC1 [LORATADINE]

IC50 [12]: 12 µM
IC50 [4]: 0.318 µM
IC50 [2]: 0.035 µM
IC50 [13]: 8.1 µM
IC50 [15]: 0.036 µM
IC50 [16]: 0.07 µM
SMILES: COc1ccc(CC(=O)NCc2ccccc2-c2ccccc2C(=O)NCc2ccc(F)cc2F)cc1
Ratio IC50 [14]: 68

IC50 [6]: 0.22 µM
IC50 [4]: 0.95 µM
IC50 [2]: 0.222 µM
SMILES: CCCCS(=O)(=O)Nc1ccccc1C(=O)NC(CC)c1ccc(OC)nc1 (stereo not given)

IC50 [15]: 0.01 µM
SMILES: CCCC(=O)C1CCN(c2ncnc3c2CN(C(=O)c2ccc(-c4ccccc4)cc2)CC3)CC1

IC50 [2]: 0.2 µM
SMILES: O=C(NCc1ccccc1-c1ccccc1C(=O)NCCc1ccccn1)OCc1ccccc1

Activity [23]: 30%
SMILES: CN(C/C=C/C#CC(C)(C)C)Cc1cccc2ccccc12

IC50 [24]: 0.41 µM
IC50 [25]: 37 µM
IC50 [15]: 16 µM
SMILES: CCN1CC(CCN2CCOCC2)C(c2ccccc2)(c2ccccc2)C1=O (stereo not given) [DOXAPRAM]

IC50 [2]: 0.6 µM
SMILES: COc1ccc(CC(=O)NCc2ccccc2-c2ccccc2C(=O)NCCc2cccnc2)cc1

IC50 [5]: 50.1 µM
SMILES: CN(C)c1cc2c(Nc3ccc4c(cnn4Cc4ccccc4)c3)ncnc2cn1 [GW282974X]

IC50 [2]: 0.35 µM
SMILES: COc1ccc(-n2nc(Sc3ccc(C)cc3)c(C)c(C#N)c2=O)cc1

IC50 ([5]; hek293): 24.6 µM
SMILES: COCC(=O)O[C@]1(CCN(C)CCCc2nc3ccccc3[nH]2)CCc2cc(F)ccc2[C@@H]1C(C)C [MIBEFRADIL DIHYDROCHLORIDE]
